Molecules are shown by their SMILES. pEC50: −log10 of the molar value.

For one experiment, the system named is RSV A2. As to the kind of experiment: Screening for RSV inhibition using Viral ToxGlo assay in HEp-2 cells. Type of experiment: cell-based. The note with it: human respiratory syncytial virus, HEp-2, 72 h. On the procedure:
Protocol for Screening Antiviral Compounds for RSV Inhibition and Cytotoxicity Using Viral ToxGlo Assay
HEp-2 cells were maintained in Eagle's minimum essential medium (EMEM) with Earle's BSS adjusted to contain 2 mM L-glutamine, 10% fetal bovine serum, 100 U/ml penicillin and 100 μg/ml streptomycin. For the purposes of the screening assay they were grown to 90% confluency, trypsinized and recovered. The trypsin was neutralised with cell culture media and cells were centrifuged at 150×g for 5 minutes before discarding the supernatant and resuspending cell pellet in assay media (EMEM with Earle's BSS adjusted to contain 2 mM L-glutamine, 2% fetal bovine serum and 100 U/ml penicillin and 100 μg/ml streptomycin). The cells were seeded into white clear-bottomed cell culture plates at a density of 1.5×10^4 cells/well in 50 μl and 4×10^3 cells/well in 25 μl for 96 well plates and 384 well plates respectively. For the media/background control column assay media only was added. Cell plates were placed in a humid chamber and incubated overnight at 37° C./5% CO2. After overnight incubation cells were checked for confluency and healthy appearance.
Test articles were made up at 10× test concentration in a maximum DMSO concentration of 10% (final assay concentration maximal 1% DMSO) and added to the cell plates in volumes of 10 μl for 96 well plates and 5 μl for 384 well plates. For cell control and virus control wells the test article solvent only was added. Virus or assay media for cytotoxicity test wells and media/cell control wells was added immediately after test articles at an MOI of 0.5, 40 or 20 μl for 96 and 384 well plates respectively. Virus suspension was prepared by thawing RSV A2 frozen stocks and diluting to the required concentration of plaque forming units in assay media on ice.
Cell plates were further incubated inside a humid chamber for 72 h p.i at 37° C./5% CO2. After the incubation period cells were observed under the microscope to check for characteristic cytopathic effect in virus control wells and healthy cells in the cell control wells. After plates were adjusted to room temperature 20/40 μl Viral ToxGlo (Promega) was added to each well of the 384/96 well cell plates. Plates were incubated at room temperature, protected from light on a plate rocker for 20 minutes before measuring the luminescence on a spectrophotometer (Biotek Synergy HTX).
RSV inhibition was calculated as percentage of cytopathic effect inhibition relative to the virus control and cytotoxicity as percentage of cell survival relative to cell control wells. This allowed EC50 values to be calculated for each test article where a virus inhibition or cytotoxic dose response was identified. EC50 values ranging between 0.001 µM and 5 μM could thus be determined for compounds 1, 6, 10, 13, 28, 38, 43, 47, 48, 49, 50, 51, 52, 53, 54, 55, 56 and 57.

A further experiment has as its system DENV-2 strain 16681. The experiment in a line: Screening for DENV-2 inhibition using Viral ToxGlo assay in A549 cells. It is filed as cell-based, Dengue 2 virus. The note with it: Dengue virus, DENV2, A549, 120 h, read-out: % DENV-2 Inhibition Mean (n = 3). On the procedure:
Protocol for Screening Antiviral Compounds for DENV-2 Inhibition and Cytotoxicity Using Viral ToxGlo Assay
A549 cells were maintained in Dulbecco's Modified Eagle Medium (DMEM) supplemented with 10% fetal bovine serum, 100 U/ml penicillin and 100 μg/ml streptomycin. For the purposes of the screening assay they were grown to 90% confluency, trypsinized and recovered. The trypsin was neutralised with cell culture media and cells were centrifuged at 150×g for 5 minutes before discarding the supernatant and resuspending cell pellet in assay media (DMEM supplemented with 2% fetal bovine serum and 100 U/ml penicillin and 100 μg/ml streptomycin). The cells were seeded into 96-well white clear-bottomed cell culture plates at a density of 1.0×10^4 cells/well in 50 μl. For the media/background control column assay media only was added. Cell plates were placed in a humid chamber and incubated overnight at 37° C./5% CO2. After overnight incubation cells were checked for confluency and healthy appearance.
Test compounds were prepared at a final concentration of 10 μM, in a maximum DMSO concentration of 1% (final assay concentration maximal 0.1% DMSO) and added to the cell plates in volumes of 10 μl. For cell control and virus control wells the test article solvent only was added. As a positive inhibition control, 7-Deaza-2′-C-methyladenosine was added at 100 μM in 3 wells. Virus (DENV-2 strain 16681) or assay media for cytotoxicity test wells and media/cell control wells was added immediately after test articles at an MOI of 0.5, 40 for 96 well plates respectively. Virus suspension was prepared by thawing DENV-2 frozen stocks and diluting to the required concentration of plaque forming units in assay media.
Cell plates were further incubated inside a humid chamber for 5 days p.i at 37° C./5% CO2. After the incubation period cells were observed under the microscope to check for characteristic cytopathic effect in virus control wells and healthy cells in the cell control wells. After plates were adjusted to room temperature 20 μl Viral ToxGlo (Promega) was added to each well of the 96-well cell plates. Plates were incubated at room temperature for 5 minutes before measuring the luminescence on a spectrophotometer (Envision, PerkinElmer).
DENV-2 inhibition was calculated as percentage of cytopathic effect inhibition relative to the virus control and cytotoxicity as percentage of cell survival relative to cell control wells.

One may read the pEC50 as the EC50 on a negative log10 scale, so that one unit is a factor of ten. What is called inhibition is the relative decrease from the control value, in per cent. With `Cc1cc(OCc2ccccc2)ccc1Nc1ccc2cccc(Cl)c2n1` [Compound 47, N-(4-(benzyloxy)-2-methylphenyl)-8-chloroquinolin-2-amine], the pEC50 in the experiment on RSV A2 is 6.38. For the same compound, the inhibition at 10 µM with DENV-2 strain 16681 turned out to be 82%.

Take `Cc1cc(Oc2cccc3ccccc23)ccc1Nc1ccc2cccc(Cl)c2n1` [Compound 54, 8-chloro-N-(2-methyl-4-(naphthalen-1-yloxy)phenyl)quinolin-2-amine]: the negative logarithm of the EC50 (pEC50) in the experiment on RSV A2 was 7.03. Also, in the experiment on DENV-2 strain 16681, the inhibition at 10 µM came to 69%.

For the compound `Cc1cc(Oc2ccccc2)ccc1Nc1ccc2cccc(Cl)c2n1` [Compound 56, 8-chloro-N-(2-methyl-4-phenoxyphenyl)quinolin-2-amine 2,2,2-trifluoroacetate], the pEC50 with RSV A2 is 6.88. The inhibition at 10 µM with DENV-2 strain 16681 was 76%.

For the origin of these results see patent US12084422B2, “Phenyl-n-quinoline derivatives for treating a RNA virus infection” (ABIVAX, priority 2018, dated 2024).
